What was measured:
[1] = molecular target: ligand binding domain of human FXR (Homo sapiens (Human), UniProt Q96RI1); assay: FXR ligand binding assay (LanthaScreen TR-FRET, SRC2-2 peptide recruitment); conditions: for pEC50: -log EC50, concentration required to produce 50% activation; for Emax: extent of activation relative to GW4064, read-out: % Efficacy
[2] = molecular target: human Farnesoid X receptor ligand-binding domain/Gal4 DNA binding domain chimera (Homo sapiens (Human), UniProt Q96RI1); assay: Cell-based assay of FXR activation (FXR-UAS-bla HEK 293T beta-lactamase reporter); conditions: cellular FXR beta-lactamase reporter assay; for Emax: HEK-293T, extent of activation relative to GW4064, read-out: % Efficacy; for EC50: FXR-UAS-bla HEK 293T cells, 16 h, pEC50 = -log EC50
Outline: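 Readout is cleavage of the CCF4 FRET substrate (409 nm excitation, blue 447 nm signal) by beta-lactamase, expressed under UAS control after a Gal4–human FXR LBD chimera is activated in HEK 293T cells. Compounds were added as 3-fold dilutions for 16 h at 37 °C in 2% charcoal-stripped FBS medium. Curves were fit to a 3-parameter logistic equation to give pEC50, with % activation relative to GW4064.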

human Farnesoid X receptor ligand-binding domain/Gal4 DNA binding domain chimera, sequence (Q96RI1 262-486, change not shown): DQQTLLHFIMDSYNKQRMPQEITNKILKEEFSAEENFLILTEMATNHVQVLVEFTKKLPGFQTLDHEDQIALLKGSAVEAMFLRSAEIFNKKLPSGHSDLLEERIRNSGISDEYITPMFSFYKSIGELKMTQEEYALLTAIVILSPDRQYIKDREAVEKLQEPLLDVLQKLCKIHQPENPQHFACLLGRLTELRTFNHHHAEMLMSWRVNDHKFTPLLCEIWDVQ
human Farnesoid X receptor ligand-binding domain/Gal4 DNA binding domain chimera, sequence (P04386 1-147 partner): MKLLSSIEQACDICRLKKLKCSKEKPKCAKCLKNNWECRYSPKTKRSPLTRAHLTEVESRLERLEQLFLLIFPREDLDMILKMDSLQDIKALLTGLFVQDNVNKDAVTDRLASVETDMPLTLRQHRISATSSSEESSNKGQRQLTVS
ligand binding domain of human FXR, sequence (Q96RI1 262-486): as the sequence (Q96RI1 262-486, change not shown) above

Cc1cccc(Cl)c1-c1noc(C2CC2)c1CO[C@@H]1C[C@@H]2C[C@H]1CN2c1nc2c(C3CCOCC3)cc(C(=O)O)cc2s1 [Compound I-271, 2-((1S,4S,5R)-5-((3-(2-chloro-6-methylphenyl)-5-cyclopropylisoxazol-4-yl)methoxy)-2-azabicyclo[2.2.1]heptan-2-yl)-4-(tetrahydro-2H-pyran-4-yl)benzo[d]thiazole-6-carboxylic acid]
pEC50 [1]: 8.6
Emax [1]: 132%
Emax [2]: 108%
EC50 [2]: 0.398 nM

Cc1cccc(Cl)c1-c1noc(C2CC2)c1CO[C@@H]1C[C@@H]2C[C@H]1CN2c1nc2c([C@H]3CCOC3)cc(C(=O)O)cc2s1 [Compound I-272, 2-((1S,4S,5R)-5-((3-(2-chloro-6-methylphenyl)-5-cyclopropylisoxazol-4-yl)methoxy)-2-azabicyclo[2.2.1]heptan-2-yl)-4-((R)-tetrahydrofuran-3-yl)benzo[d]thiazole-6-carboxylic Acid]
pEC50 [1]: 8.4
Emax [1]: 132%
Emax [2]: 105%
EC50 [2]: 0.501 nM

Cc1cccc(Cl)c1-c1noc(C2CC2)c1CO[C@@H]1C[C@@H]2C[C@H]1CN2c1nc2c([C@@H]3CCOC3)cc(C(=O)O)cc2s1 [Compound I-273, 2-((1S,4S,5R)-5-((3-(2-chloro-6-methylphenyl)-5-cyclopropylisoxazol-4-yl)methoxy)-2-azabicyclo[2.2.1]heptan-2-yl)-4-((S)-tetrahydrofuran-3-yl)benzo[d]thiazole-6-carboxylic Acid]
pEC50 [1]: 8.4
Emax [1]: 132%
Emax [2]: 106%
EC50 [2]: 0.398 nM

Cc1cccc(Cl)c1-c1noc(C2CC2)c1CO[C@@H]1C[C@@H]2C[C@H]1CN2c1nc2c(O[C@H]3CCOC3)cc(C(=O)O)cc2s1 [Compound I-274, 2-((1S,4S,5R)-5-((3-(2-chloro-6-methylphenyl)-5-cyclopropylisoxazol-4-yl)methoxy)-2-azabicyclo[2.2.1]heptan-2-yl)-4-(((S)-tetrahydrofuran-3-yl)oxy)benzo[d]thiazole-6-carboxylic acid]
pEC50 [1]: 8.8
Emax [1]: 150%
Emax [2]: 100%
EC50 [2]: 0.631 nM

Cc1cccc(Cl)c1-c1noc(C2CC2)c1CO[C@@H]1C[C@@H]2C[C@H]1CN2c1nc2c(O[C@@H]3CCOC3)cc(C(=O)O)cc2s1 [Compound I-275, 2-((1S,4S,5R)-5-((3-(2-chloro-6-methylphenyl)-5-cyclopropylisoxazol-4-yl)methoxy)-2-azabicyclo[2.2.1]heptan-2-yl)-4-(((R)-tetrahydrofuran-3-yl)oxy)benzo[d]thiazole-6-carboxylic acid]
pEC50 [1]: 8.8
Emax [1]: 140%
Emax [2]: 106%
EC50 [2]: 0.631 nM

Cc1cccc(C)c1-c1noc(C2CC2)c1CO[C@@H]1C[C@@H]2C[C@H]1CN2c1nc2c(C)cc(C(=O)O)cc2s1 [Compound I-276, 2-[(1S,4S,5R)-5-{[5-cyclopropyl-3-(2,6-dimethylphenyl)-1,2-oxazol-4-yl]methoxy}-2-azabicyclo[2.2.1]heptan-2-yl]-4-methyl-1,3-benzothiazole-6-carboxylic Acid]
pEC50 [1]: 8.2
Emax [1]: 124%
Emax [2]: 114%
EC50 [2]: 3.98 nM

O=C(O)c1cc(F)c2nc(N3C[C@@H]4C[C@H]3C[C@H]4OCc3c(C4CCC5(CC4)CC5)noc3C3CC3)sc2c1 [Compound I-277, 2-[(1S,4S,5R)-5-[(5-cyclopropyl-3-{spiro[2.5]octan-6-yl}-1,2-oxazol-4-yl)methoxy]-2-azabicyclo[2.2.1]heptan-2-yl]-4-fluoro-1,3-benzothiazole-6-carboxylic Acid]
pEC50 [1]: 8.1
Emax [1]: 106%
Emax [2]: 123%
EC50 [2]: 158 nM

O=C(O)c1cc(OC2CC2)c2nc(N3C[C@@H]4C[C@H]3C[C@H]4OCc3c(C4CCC5(CC4)CC5)noc3C3CC3)sc2c1 [Compound I-278, 4-cyclopropoxy-2-((1S,4S,5R)-5-((5-cyclopropyl-3-(spiro[2.5]octan-6-yl)isoxazol-4-yl)methoxy)-2-azabicyclo[2.2.1]heptan-2-yl)benzo[d]thiazole-6-carboxylic acid]
pEC50 [1]: 7.7
Emax [1]: 96%
Emax [2]: 98%
EC50 [2]: 10 nM

O=C(O)c1cc(C2CCOCC2)c2nc(N3C[C@@H]4C[C@H]3C[C@H]4OCc3c(C4CCC5(CC4)CC5)noc3C3CC3)sc2c1 [Compound I-279]
pEC50 [1]: 7.2
Emax [1]: 112%
Emax [2]: 104%
EC50 [2]: 39.8 nM

O=C(O)c1cc([C@H]2CCOC2)c2nc(N3C[C@@H]4C[C@H]3C[C@H]4OCc3c(C4CCC5(CC4)CC5)noc3C3CC3)sc2c1 [Compound I-280, 2-((1S,4S,5R)-5-((5-cyclopropyl-3-(spiro[2.5]octan-6-yl)isoxazol-4-yl)methoxy)-2-azabicyclo[2.2.1]heptan-2-yl)-4-((R)-tetrahydrofuran-3-yl)benzo[d]thiazole-6-carboxylic acid]
pEC50 [1]: 7.3
Emax [1]: 115%
Emax [2]: 105%
EC50 [2]: 25.1 nM

O=C(O)c1cc([C@@H]2CCOC2)c2nc(N3C[C@@H]4C[C@H]3C[C@H]4OCc3c(C4CCC5(CC4)CC5)noc3C3CC3)sc2c1 [Compound I-281, 2-((1S,4S,5R)-5-((5-cyclopropyl-3-(spiro[2.5]octan-6-yl)isoxazol-4-yl)methoxy)-2-azabicyclo[2.2.1]heptan-2-yl)-4-((S)-tetrahydrofuran-3-yl)benzo[d]thiazole-6-carboxylic acid]
pEC50 [1]: 7.4
Emax [1]: 104%
Emax [2]: 105%
EC50 [2]: 15.8 nM

O=C(O)c1cc(C2CCC2)c2nc(N3C[C@@H]4C[C@H]3C[C@H]4OCc3c(C4CCC5(CC4)CC5)noc3C3CC3)sc2c1 [Compound I-282, 4-cyclobutyl-2-((1S,4S,5R)-5-((5-cyclopropyl-3-(spiro[2.5]octan-6-yl)isoxazol-4-yl)methoxy)-2-azabicyclo[2.2.1]heptan-2-yl)benzo[d]thiazole-6-carboxylic acid]
pEC50 [1]: 7.4
Emax [1]: 100%
Emax [2]: 117%
EC50 [2]: 25.1 nM

O=C(O)c1cc(C2CCCC2)c2nc(N3C[C@@H]4C[C@H]3C[C@H]4OCc3c(C4CCC5(CC4)CC5)noc3C3CC3)sc2c1 [Compound I-283, 4-cyclopentyl-2-((1S,4S,5R)-5-((5-cyclopropyl-3-(spiro[2.5]octan-6-yl)isoxazol-4-yl)methoxy)-2-azabicyclo[2.2.1]heptan-2-yl)benzo[d]thiazole-6-carboxylic acid]
pEC50 [1]: 7
Emax [1]: 114%
Emax [2]: 104%
EC50 [2]: 25.1 nM

O=C(O)c1cc(C2CCC2)c2nc(N3C[C@H]4C[C@@H]3C[C@@H]4OCc3c(-c4c(Cl)cccc4Cl)noc3C3CC3)sc2c1 [Compound I-284, 4-cyclobutyl-2-[(1R,4R,5S)-5-{[5-cyclopropyl-3-(2,6-dichlorophenyl)-1,2-oxazol-4-yl]methoxy}-2-azabicyclo[2.2.1]heptan-2-yl]-1,3-benzothiazole-6-carboxylic Acid]
pEC50 [1]: 9
Emax [1]: 116%
Emax [2]: 100%
EC50 [2]: 3.16 nM

O=C(O)c1cc(C2CCCC2)c2nc(N3C[C@H]4C[C@@H]3C[C@@H]4OCc3c(-c4c(Cl)cccc4Cl)noc3C3CC3)sc2c1 [Compound I-285, 4-cyclopentyl-2-[(1R,4R,5S)-5-{[5-cyclopropyl-3-(2,6-dichlorophenyl)-1,2-oxazol-4-yl]methoxy}-2-azabicyclo[2.2.1]heptan-2-yl]-1,3-benzothiazole-6-carboxylic Acid]
pEC50 [1]: 8.9
Emax [1]: 116%
Emax [2]: 100%
EC50 [2]: 2.51 nM

COc1cc(Cl)c(-c2noc(C3CC3)c2CO[C@@H]2C[C@@H]3C[C@H]2CN3c2nc3c(F)cc(C(=O)O)cc3s2)c(Cl)c1 [Compound I-286, 2-[(1S,4S,5R)-5-{[5-cyclopropyl-3-(2,6-dichloro-4-methoxyphenyl)-1,2-oxazol-4-yl]methoxy}-2-azabicyclo[2.2.1]heptan-2-yl]-4-fluoro-1,3-benzothiazole-6-carboxylic Acid]
pEC50 [1]: 8.7
Emax [1]: 130%
Emax [2]: 108%
EC50 [2]: 39.8 nM

O=C(O)c1cc(F)c2nc(N3C[C@@H]4C[C@H]3C[C@H]4OCc3c(-c4c(Cl)cc(O)cc4Cl)noc3C3CC3)sc2c1 [Compound I-287, 2-[(1S,4S,5R)-5-{[5-cyclopropyl-3-(2,6-dichloro-4-hydroxyphenyl)-1,2-oxazol-4-yl]methoxy}-2-azabicyclo[2.2.1]heptan-2-yl]-4-fluoro-1,3-benzothiazole-6-carboxylic Acid]
pEC50 [1]: 9.2
Emax [1]: 134%
Emax [2]: 113%
EC50 [2]: 63.1 nM

COc1ccccc1-c1noc(C2CC2)c1CO[C@@H]1C[C@@H]2C[C@H]1CN2c1nc2c(F)cc(C(=O)O)cc2s1 [Compound I-288, 2-((1S,4S,5R)-5-((5-cyclopropyl-3-(2-methoxyphenyl)isoxazol-4-yl)methoxy)-2-azabicyclo[2.2.1]heptan-2-yl)-4-fluorobenzo[d]thiazole-6-carboxylic acid]
pEC50 [1]: 8
Emax [1]: 188%
Emax [2]: 112%
EC50 [2]: 3.98 nM

COc1cccc(-c2noc(C3CC3)c2CO[C@@H]2C[C@@H]3C[C@H]2CN3c2nc3c(F)cc(C(=O)O)cc3s2)c1 [Compound I-289, 2-((1S,4S,5R)-5-((5-cyclopropyl-3-(3-methoxyphenyl)isoxazol-4-yl)methoxy)-2-azabicyclo[2.2.1]heptan-2-yl)-4-fluorobenzo[d]thiazole-6-carboxylic acid]
pEC50 [1]: 6.9
Emax [1]: 70%
EC50 [2]: < 31.6 nM

— patent US10793568B2, “Hormone receptor modulators for treating metabolic conditions and disorders” (ARDELYX, INC., priority 2016, dated 2020)
